What all share (type): functional
For test [1], the system named is Escherichia coli. Briefly: Antibacterial activity against Escherichia coli RG488 by agar dilution method. On the technique in general: In agar dilution the substance is mixed into plates at graded concentrations.
Test [2] deals with Escherichia coli. Briefly: Antibacterial activity against rifampin resistant Escherichia coli RG488 receiving Klebsiella pneumoniae qnrB4 by agar dilution method.
Test [3] has as its system Escherichia coli. Briefly: Antibacterial activity against rifampin resistant Escherichia coli RG488 receiving Klebsiella pneumoniae qnrS1 by agar dilution method.
Test [4] deals with Escherichia coli. Briefly: Antibacterial activity against Escherichia coli J53 by agar dilution method.
For test [5], the system named is Escherichia coli. Briefly: Antibacterial activity against rifampin resistant Escherichia coli RG488 receiving Escherichia coli qnrB4 by agar dilution method.
Test [6] has as its system Escherichia coli. Briefly: Antibacterial activity against rifampin resistant Escherichia coli RG488 receiving Enterobacter cloacae qnrB4 by agar dilution method.
The test system of test [7] is Escherichia coli. Briefly: Antibacterial activity against rifampin resistant Escherichia coli RG488 receiving Klebsiella pneumoniae qnrB6 by agar dilution method.

≈ marks a conversion by molar mass, not a printed value.

As a reminder, the MIC90 is the lowest concentration that inhibits either 90% of growth or 90% of the strains tested, depending on the study. Low readings indicate greater potency, high ones weaker potency.

On to `O=C(O)c1cn(C2CC2)c2cc(N3CCNCC3)c(F)cc2c1=O` [CIPROFLOXACIN], for which the MIC90 with Escherichia coli [1] was determined as 0.03 µg/mL (≈ 0.0905 µM); in the test on Escherichia coli [2] it was 0.125 µg/mL (≈ 0.377 µM); in the test on Escherichia coli [3] it was 1 µg/mL (≈ 3.02 µM); with Escherichia coli [4] it was 0.015 µg/mL (≈ 0.0453 µM).

In the case of `CCn1cc(C(=O)O)c(=O)c2ccc(C)nc21` [NALIDIXIC ACID], the MIC90 turned out to be 4 µg/mL (≈ 17.2 µM) against Escherichia coli [1]; 16 µg/mL (≈ 68.9 µM) in the test on Escherichia coli [5]; 8 µg/mL (≈ 34.4 µM) in the test with Escherichia coli [2]; 8 µg/mL (≈ 34.4 µM) with Escherichia coli [6]; 32 µg/mL (≈ 138 µM) with Escherichia coli [3]; 16 µg/mL (≈ 68.9 µM) in the test with Escherichia coli [7]. Further, the MIC90 in the test with Escherichia coli [4] turned out to be 4 µg/mL (≈ 17.2 µM).

These data come from ChEMBL document CHEMBL1275540, “Plasmid-mediated quinolone resistance determinants qnrA, qnrB, and qnrS among clinical isolates of Enterobacteriaceae in a Korean hospital” (2008).
